# From US20060281791A1, “Methods of increasing proliferation of adult mammalian cardiomyocytes through p38 map kinase inhibition” (CHILDREN'S MEDICAL CENTER CORPORATION, priority 2005, published 2006)
# Tests used:
# [1] = tested on: neonatal (P2) cardiomyocytes; assay: Induction of DNA synthesis (BrdU incorporation) in neonatal cardiomyocytes; type: cell-based, rat; settings: BrdU labeling period 24 to 72 hours; harvested after 72 hours; optimal concentration of stimulus
# Experimental: Animal experiments were performed in accordance with guidelines of Children's Hospital, Boston and UCLA. Ventricular cardiomyocytes from fetal (E19), 2-day-old (P2) and adult (250-350 g) Wistar rats (Charles River) were isolated as described with minor modifications (Engel et al. 1999; Engel et al. 2003). After digestion of fetal or neonatal hearts (0.14 mg/ml collagenase II (Invitrogen), 0.55 mg/ml pancreatin (Sigma)) cells were cultured in DMEM/F12 (GIBCO) containing 3 mM Na-pyruvate, 0.2% BSA, 0.1 mM ascorbic acid (Sigma), 0.5% Insulin-Transferrin-Selenium (100×), penicillin (100 U/ml), streptomycin (100 μg/ml), and 2 mM L-glutamine (GIBCO). Adult cardiomyocytes were cultured for 1 day in standard medium (DMEM, 25 mM Hepes, 5 mM taurine, 5 mM creatine, 2 mM L-carnitine (Sigma), 20 U/ml insulin (GIBCO), 0.2% BSA, penicillin (100 U/ml), and streptomycin (100 μg/ml)). Cells were stimulated in culture medium without BSA containing 2 mM L-glutamine. Neonatal and adult cardiomyocytes were initially cultured for 48 h in the presence of 20 μM cytosine β-D-arabinofuranoside (araC, Sigma) and 5% horse serum before stimulation to prevent proliferation of non-myocytes. Adult cardiomyocytes were incubated another 3 days with araC during stimulation. Neonatal cardiomyocytes were stimulated every day with growth factors for BrdU and H3P analyses (FGF1 and NRG-1-1β at 50 ng/ml, IL-1β at 100 ng/ml, R&D Systems, all diluted in 0.1% BSA/PBS). SB203580 and LY294002 (Calbiochem) was added every day. Adult cardiomyocytes were stimulated with fresh medium and SB203580 every 3 days.
# Staining was performed as described (Supplemental Table S3) (Engel et al. 1999; Engel et al. 2003). Immune complexes were detected with ALEXA 350, ALEXA 488 or ALEXA 594-conjugated secondary antibodies (1:200, Molecular Probes). DNA was visualised with DAPI (4′,6′-diamidino-2-phenylindole, 0.5 μg/ml, Sigma). For BrdU, cells were cultured in 30 μM BrdU, incubated after permeabilization for 90 min in 2N HCl/1% triton X-100 and washed 3 times in PBS.
# Eighteen to 40 hearts of 3 different litters were used for quantitative analyses of maximal areas. For immunofluorescence analyses 1,500 fetal or neonatal cardiomyocytes were counted. For adult cardiomyocyte analyses in vitro the following number of cells were counted: 500-2,000 for BrdU or Ki67, 9,000-25,000 for H3P, and 12,000-45,000 for aurora B. For in vivo MKK3bE and p38α knockout experiments 2 different litters were used. We counted 1,500-2,000 cells in each apex, left and right ventricle per heart. For adult experiments we analyzed 2 p38α^Δ/Δ and 2 p38^lox/lox hearts (24 sections each). Statistical significance was determined using Student's t test.
# Several growth factors have a limited capacity to induce DNA synthesis in neonatal cardiomyocytes, including FGF1 (Pasumarthi and Field 2002). We screened 45 extracellular factors at two different concentrations for their ability to induce BrdU incorporation in neonatal (P2) cardiomyocytes. […] We confirmed previous studies showing that FGF1, IL-1β, and NRG-1-β1 are potent growth factors for neonatal cardiomyocytes (Supplemental Table S2) (Pasumarthi and Field 2002 Circ Res 90: 1044-54).
# Inhibition of p38 activity by SB203580 increased BrdU incorporation 2.8-fold in neonatal cardiomyocytes stimulated with FGF1 (p<0.01). Similar results were obtained after stimulation with IL-1β and NRG-1-β1. Thus, inhibition of p38 activity augments growth factor-mediated DNA synthesis in neonatal cardiomyocytes.
# [2] = tested on: myocardial infarction in adult rats; assay: Thinning index (ventricular wall thinning) after myocardial infarction; type: in vivo, rat
# Experimental: To determine whether p38 inhibition/FGF1 stimulation can induce cardiomyocyte proliferation in vivo and whether it has a positive effect on cardiac function after cardiac injury we created myocardial infarctions (MI) in adult rats (250 g) by coronary artery ligation. The p38 inhibitor SB203580 HCl or its vehicle, saline, were injected intraperitoneal every three days for the first month of the study. FGF1 or its carrier BSA was injected mixed with self-assembling peptides once into the infarct border zone immediately after coronary artery ligation. […] Animals were analyzed 24 hours, 2 weeks, and 3 month after surgery. […]
# Ventricular wall thinning is an important parameter of heart function. Thus, we determined the thickness of the ventricular wall after injury. For this purpose we calculated the thinning index (ratio of minimal ventricular wall thickness to maximal thickness of the septum). […]
# Scar formation was determined as fibrotic area/(fibrotic+non-fibrotic area) based on all sections. The thinning index is a ratio of the amount of wall thinning in the infarct normalized to the thickness of the septum and is calculated by dividing the minimal infarct wall thickness with maximal septal wall thickness (2 weeks: section 1 to 4, 3 month: section 1 to 6 from base).
substance,measurement,setting,value
FGF1: growth factor FGF1 (R&D Systems),% of BrdU positive neonatal cardiomyoctes,[1],61.8 ± 2.1%
same,left ventricular wall thinning (thinning index),[2]; 2 weeks,significantly reduced
same,ventricular wall thinning,[2]; 3 month,significantly improved
